Results taken from US9655869B2, “Estrogen antagonists as treatments for sclerosing disorders” (University of Pittsburgh—Of The Commonwealth System Of …, priority 2009, dated 2017).

Tests used:
fibronectin (FN) = experiment: FN mRNA (RT-PCR) and protein (western blot) expression in primary skin fibroblasts; assay type: cell-based, human; settings: for FN protein levels in the ECM: primary fibroblasts treated 48 hrs, PPT 100 nM, genistein 100 nM, western blot; for E2-mediated increase of FN protein: skin fibroblasts pre-treated with inhibitor 1 hr prior to E2, western blot 48 hrs post-treatment, cellular lysates
Description: Skin-punch biopsies (6 mm) were obtained with informed consent from the clinically affected and unaffected skin of 6 patients with SSc and 5 healthy twins. All SSc patients had diffuse skin involvement and met the American College of Rheumatology criteria for the diagnosis of SSc (1). Biopsies were performed on the leading edge of dermal thickening and clinically normal skin. The skin samples were minced, placed in 60-mm tissue culture dishes and cultured at 37° C. in a humidified atmosphere in Dulbecco's modified Eagle's medium (DMEM) (Cellgro, Herndon, Va.) supplemented with 10% fetal bovine serum (FBS; Sigma-Aldrich, St. Louis, Mo.), 100 IU/ml penicillin, and 100 μg/ml streptomycin (Invitrogen, Carlsbad, Calif.). Skin fibroblasts (2×10^5 cells per well) were seeded in 35 mm cell culture dishes in DMEM/10% FBS. The following day, the medium was replaced with phenol-red free DMEM (Cellgro) without serum for 24 hours to deprive the cells of estrogen. […] Sigma-Aldrich) for 24 hours (for RNA extraction) or 48 hours (for protein extraction). TGF-β (10 ng/ml; R&D systems, Minneapolis, Minn.) was used as a positive control. […] Cell Signaling Technology, Beverly, Mass.) were added where indicated. To determine the role of ERα and β on FN individually, cells we cultured with propyl-pyrazole-triol (PPT), an ERα specific ligand (100 nM; Tocris), and genistein, an ERβ specific ligand (100 nM; […] Extracellular matrix (ECM) was extracted as we have previously described. (35) Briefly, cells were rinsed with PBS and incubated with 8M Urea in PBS for 20 mins. Cells were aspirated and the ECM was rinsed three times with PBS. ECM was scraped in 100 μl sample buffer (20 mM dithiothreitol, 6% SDS, 0.25 M Tris, pH 6.8, 10% glycerol, 10 mM NaF and bromophenyl blue) and analyzed by western blot. Skin fibroblasts in early passage (passages 3-4) were harvested and RNA was extracted using TRIzol (Invitrogen). mRNA was reverse transcribed using Superscript II (Invitrogen) following the manufacturer's recommendations. The cDNA generated was used as a template for amplification by PCR with primers specific for ERα [NT] ID NO:1) and […] NO:2), ERβ […] NO:3) and [NT] ID NO:4), Fibronectin, [NT] ID NO:5) and 5-[…] ID NO:6) and β-actin, […] NO:7) and [NT] ID NO:8). PCR amplification was performed in a 50 μl reaction containing 10 units of the reverse transcription reaction, Taq DNA polymerase (Invitrogen), 10×PCR buffer (750 mM Tris-HCl, pH8.8, 200 mM (NH4)2SO4 and 0.1% Tween 20), 1.5 mM MgSO4, 1 mM of each deoxynucleotide triphosphate in a Peltier Thermal Cycler-200 (MJ Research, Waltham, Mass.). Conditions were an initial denaturation at 95° C. for 4 min, followed by 35 cycles of 94° C. for 45 sec, 55° C. for 30 sec, and 68° C. for 2 min. Final extension was at 68° C. for 5 min. 20 μl of each reaction was electrophoresed on a 1% agarose gel in 1×TAE (Tris/acetate/EDTA) buffer and products were visualized following staining with ethidium bromide. Molecular weight of each PCR product: ERα 1062 bp, ERβ 934 bp, FN 513 bp and β-actin 494 bp. Cells were grown to confluency in 35 mm culture dishes. Cells were rinsed with 1×PBS and scraped in sample buffer (20 mM dithiothreitol, 6% SDS, 0.25 M Tris, pH 6.8, 10% glycerol, 10 mM NaF and bromophenyl blue). Samples were separated by electrophoresis on 8% SDS-polacrylamide gels (National Diagnostic, Atlanta, Ga.) and transferred to nitrocellulose membranes. […] Immunoreactive proteins were detected by chemiluminescence (PerkinElmer Life Sciences, Boston, Mass.), followed by autoradiography.

human skin = experiment: ex vivo human skin organ culture: dermal and collagen bundle thickness; settings: explanted human skin, 7 days; for collagen bundle thickness, ratio compared with vehicle / dermal thickness, ratio compared with vehicle: p<0.05, 3 experiments
Description: Dermal and collagen bundle thickness were measured in skin sections stained with hematoxylin and eosin.
Dermal thickness was defined as the distance from the granular layer to the junction between the dermis and subcutaneous fat. Images were taken on a Nikon Eclipse 800 microscope (Nikon Instruments, Inc., Huntley, Ill.) using identical camera settings and Image was used to measure thickness. Thickness was measured in 5 random fields in each sample.
(§1) To further examine the effect of estradiol in skin tissues, dermal and collagen bundle thickness in dermis were assessed using an ex vivo organ culture system. Ex-planted skin tissues on 35-mm well plates were treated with estradiol, estrogen receptor alpha or beta agonists (PPT, genistein, respectively) or vehicles (ethanol for estraditol, PPT, DMSO for genistein, respectively) for 7 days, and skin sections were stained with hematoxylin and eosin. […] We also assessed the extent of deposition of fibronectin using immunohistochemistry. […] Thus, estradiol is an important factor for the induction of skin fibrosis, and the effect of estradiol is mediated by estrogen receptor alpha.

ERα = ERα protein in cellular lysates of skin fibroblasts (western blot); assay type: cell-based, human; settings: for E2-induced increase of ERα: skin fibroblasts pre-treated with inhibitor 1 hr prior to E2, 48 hrs
Description: Skin fibroblasts (2×10^5 cells per well) were seeded in 35 mm cell culture dishes in DMEM/10% FBS. The following day, the medium was replaced with phenol-red free DMEM (Cellgro) without serum for 24 hours to deprive the cells of estrogen. Fresh phenol-red free DMEM plus 10% charcoal stripped fetal bovine serum (Hyclone, Logan, Utah) was added with one of the following: ethanol as vehicle control (0.1%) or E2 (10 nM; Sigma-Aldrich) for 24 hours (for RNA extraction) or 48 hours (for protein extraction).
Cells were grown to confluency in 35 mm culture dishes. Cells were rinsed with 1×PBS and scraped in sample buffer (20 mM dithiothreitol, 6% SDS, 0.25 M Tris, pH 6.8, 10% glycerol, 10 mM NaF and bromophenyl blue). Samples were separated by electrophoresis on 8% SDS-polacrylamide gels (National Diagnostic, Atlanta, Ga.) and transferred to nitrocellulose membranes. Membranes were blocked with 5% non-fat milk in 1×TBS-Tween20 (0.2 M Tris, 0.14 M NaCl, 0.1% Tween 20), followed by incubation with mouse monoclonal anti-human EDA-fibronectin antibody, rabbit polyclonal anti-human fibronectin antibody, rabbit polyclonal anti-ERα antibody, rabbit polyclonal anti-ERβ antibody (Santa Cruz Biotechnology, Santa Cruz, Calif.), mouse monoclonal anti-human vitronectin, mouse monoclonal anti-β-actin (Sigma-Aldrich), or mouse monoclonal anti-GAPDH (Ambion, Austin, Tex.) in 1×TBS-Tween20 followed by horseradish peroxide-conjugated donkey anti-rabbit IgG (Amersham, Piscataway, N.J.) or donkey anti-mouse IgG (Amersham). Immunoreactive proteins were detected by chemiluminescence (PerkinElmer Life Sciences, Boston, Mass.), followed by autoradiography.
We also examined the effect of the chemical inhibitors on ERα and ERβ.

MCF7 = settings: reference (56); read-out: 1050 in the MCF7 proliferation assay; cited from earlier work
[1] = serum half life; cited from earlier work
SSc = settings: references (25), (57); cited from earlier work
fibronectin = experiment: ex vivo human skin organ culture: fibronectin immunohistochemistry; settings: explanted human skin, 7 days; anti-fibronectin antibody, AEC
Description: 6 μm sections of paraffin-embedded skin tissues were de-paraffinized, endogenous peroxidase was quenched using 10% H2O2, and endogenous biotin was blocked using the biotin blocking kit (Dakocytomation, Carpinteria, Calif.). Sections were blocked with 5% serum and incubated with anti-fibronectin antibody followed by secondary antibody. Bound secondary antibody was detected using the AEC Red kit. A light hematoxylin counterstain was used to identify nuclei. Images were taken on a Nikon Eclipse 800 microscope.
as §1

SMILES: O=c1c(-c2ccc(O)cc2)coc2cc(O)cc(O)c12 [genistein]
- FN protein levels in the ECM (fibronectin (FN); E2 10 nM): modestly increased
- thickening of dermis and collagen bundles (human skin; vs DMSO vehicle): did not induce thickening

SMILES: Oc1ccc(-c2nc(-c3ccncc3)c(-c3ccc(F)cc3)[nH]2)cc1 [p38 MAPK inhibitor, SB202190]
- E2-mediated increase of FN protein (fibronectin (FN)): attenuated
- E2-induced increase of ERα (ERα): blocked

SMILES: CCCc1c(-c2ccc(O)cc2)nn(-c2ccc(O)cc2)c1-c1ccc(O)cc1 [PPT, propyl-pyrazole-triol]
- collagen bundle thickness, ratio compared with vehicle (human skin): 1.84 ± 0.15 arbitrary unit
- dermal thickness, ratio compared with vehicle (human skin): 1.54±0.05 arbitrary unit

SMILES: C[C@]12CC[C@@H]3c4ccc(O)cc4C[C@@H](CCCCCCCCC[S+]([O-])CCCC(F)(F)C(F)(F)F)[C@H]3[C@@H]1CC[C@@H]2O (stereo partly drawn) [ICI 182,780, fulvestrant]
- TGF-β-induced FN levels (fibronectin (FN); TGF-β 10 ng/ml, ICI 182,780 100 nM): did not affect
- effect of E2 on FN mRNA and protein expression in presence of antagonist (fibronectin (FN); normal skin fibroblasts, E2 10 nM 48 hrs, ICI 182,780 100 nM, ECM and supernatants): blocked the effect of E2
- effect of estradiol on dermal and collagen bundle thickness in presence of antagonist (human skin; E2+ICI): blocked the effect of estradiol
- IC50 (MCF7): ~14 nM
- half life [1]: approximately forty

SMILES: CC/C(=C(\c1ccccc1)c1ccc(OCCN(C)C)cc1)c1ccccc1 [Tamoxifen, tamoxifen]
- SSc symptoms / treatment outcome in SSc patients (SSc): did not improve SSc symptoms

SMILES: C[C@]12CC[C@@H]3c4ccc(O)cc4CC[C@H]3[C@@H]1CC[C@@H]2O [E2, 17-β-Estradiol]
- FN mRNA and protein levels (fibronectin (FN); healthy twin and SSc fibroblasts, E2 10 nM, 24 hrs (mRNA), 48 hrs (protein)): increased
- FN protein levels in the ECM (fibronectin (FN); E2 10 nM): increased
- ERα level (ERα; skin fibroblasts stimulated with E2 48 hrs): increased
- collagen bundle thickness, ratio compared with vehicle (human skin): 2.62 ± 0.18 arbitrary unit
- dermal thickness, ratio compared with vehicle (human skin): 1.61±0.12 arbitrary unit
- fibronectin expression ex vivo (immunohistochemistry) (fibronectin): induce fibronectin expression

SMILES: CC(=O)Oc1ccc(C(=C2CCCCC2)c2ccc(OC(C)=O)cc2)cc1 [Cyclofenil]
- SSc symptoms / treatment outcome in SSc patients (SSc): disappointing results

SMILES: N#CC(=C(/N)Sc1ccccc1N)/C(C#N)=C(\N)Sc1ccccc1N [MEK inhibitor, U0126]
- E2-mediated increase of FN protein (fibronectin (FN)): more modest effect
- E2-induced increase of ERα (ERα): blocked
